Measurements taken from patent US10807958B2, “1,4-bis(3-aminopropyl)piperazine derivative and its use” (INSERM (Institut National de la Sante et de la Recherche …, priority 2015, dated 2020).

Assays:
[1] = system: Neuroblastoma SKNSH-SY5Y cells expressing the human Tau isoform 412; test: 1D gel electrophoresis / Western blot of Tau expression and phosphorylation in treated cells; format: cell-based; details: 10 μM, vs induced but non-treated condition, FIG. 1
From the text: (§1) Pan-Tau and phospho-dependent Tau antibodies included Tau-Nter (M19G, 1/10 000, Sergeant et al., 1999), Tau-Cter (1/10 000, Sergeant et al., 1999, Le Freche et al., 2012), Tau-1 (1/5000, Merck Millipore), S199P (directed against the phospho-serine 199, 1/4000, Sergeant et al., 1999), Tau-Phospho S396 (directed against the phosphor-serine 396, 1/10000, Lifetechnologies), Tau-Phospho 404 (1/10 000, Lifetechnologies), 422 (clone 2H9, a homemade monoclonal antibody developed against a phospho-peptide containing the phosphorylated serine 422 residue of Tau, numbering according to the longest human brain Tau-441 isoform), AT8 (1/1000, Thermo Scientific), AT270 (1/2000, Thermo Scientific), AT100 (1/1000, Thermo Scientific). Neuron specific enolase (1/10 000), β-actin (1/5000) and β-tubulin (1/10 000) were from Sigma-Aldrich.
Human neuroblastoma cell line SKNSH-SY5Y cells expressing the human Tau isoform 412 (with the exon 2 and 10 encoding sequences) (or SY5Y-Tau46) was as previously described in Bretteville et al., 2009.
Neuroblastoma SKNSH-SY5Y cells expressing the human Tau isoform 412 (with the exon 2 and 10 encoding sequences) were treated with 10 μM of the hydrochloride salt of N-[3-(4-{3-[Bis(2-methylpropyl)amino]propyl}piperazin-1-yl)propyl]-1,2,3,4-tetrahydroacridin-9-amine (Example 6, hereinafter named “Compound I⋅HCl”) which was diluted in the culture medium as described in Bretteville et al., 2009.
For the western-blot analysis of Tau proteins, SDS-PAGE was performed according to the manufacturer's instructions using Bis-Tris 4-12% gradient acrylamide gel (NuPage® Bis-Tris PreCast 12 wells, Life Technologies). The apparent molecular weights were calibrated using the molecular weight markers (Novex and Magic Marks, Life Technologies). Electrophoresis was performed under a continuous tension of 100V/per gel for 1 h. […]
(§2) The effect of the compound of Formula I on Tau phosphorylation was analyzed in vitro and in vivo. […]
(§3) Expression and total phosphorylation was assessed by 1D and 2D gel electrophoresis using phospho-dependent and pan-Tau antibodies (FIGS. 1 and 2). […]

[2] = system: Neuroblastoma SKNSH-SY5Y cells expressing the human Tau isoform 412; test: 2D gel electrophoresis of Tau isovariants in treated cells; format: cell-based; details: 10 μM, vs control conditions, FIG. 2
From the text: as §1
Human neuroblastoma cell line SKNSH-SY5Y cells expressing the human Tau isoform 412 (with the exon 2 and 10 encoding sequences) (or SY5Y-Tau46) was as previously described in Bretteville et al., 2009. […]
as §2, §3

CC(C)CN(CCCN1CCN(CCCNc2c3c(nc4ccccc24)CCCC3)CC1)CC(C)C [compound of Formula I, N-[3-(4-{3-[Bis(2-methylpropyl)amino]propyl}piperazin-1-yl)propyl]-1,2,3,4-tetrahydroacridin-9-amine] was tested. Which “Tau phosphorylation at serine 199” value ([1]; S199P antibody) did it give?
The value was “reduced”.

And the “Tau phosphorylation at serine 396” value ([1]; S396 antibody)?
The value was “reduced”.

And the Tau expression ([1]; pan-Tau antibodies)?
Its Tau expression is “No significant change”.

And the “Tau isovariants at the neutral pI, N- and C-terminal directed pan-Tau antibodies” value [2]?
Its value is “reduction”.

And the “Tau isovariants at the neutral pI, Tau396 phospho-dependent antibody (S396)” value [2]?
The value was “reduction”.
